From ChEMBL document CHEMBL1158264, “DNA topoisomerase I inhibitors: cytotoxic flavones from Lethedon tannaensis” (J Nat Prod, 1996)
≈ marks a conversion by molar mass, not a printed value. Calls of active or inactive are those of the source. The rule behind the calls is not given here.

Assays:
[1] = biological target: DNA topoisomerase 2-alpha (Homo sapiens) (UniProt P11388); experiment: Inhibition of DNA topoisomerase 2
[2] = biological target: T1, DNA topoisomerase 1 (Homo sapiens) (UniProt P11387); experiment: Inhibition of DNA topoisomerase 1
T1 sequence (whole entry): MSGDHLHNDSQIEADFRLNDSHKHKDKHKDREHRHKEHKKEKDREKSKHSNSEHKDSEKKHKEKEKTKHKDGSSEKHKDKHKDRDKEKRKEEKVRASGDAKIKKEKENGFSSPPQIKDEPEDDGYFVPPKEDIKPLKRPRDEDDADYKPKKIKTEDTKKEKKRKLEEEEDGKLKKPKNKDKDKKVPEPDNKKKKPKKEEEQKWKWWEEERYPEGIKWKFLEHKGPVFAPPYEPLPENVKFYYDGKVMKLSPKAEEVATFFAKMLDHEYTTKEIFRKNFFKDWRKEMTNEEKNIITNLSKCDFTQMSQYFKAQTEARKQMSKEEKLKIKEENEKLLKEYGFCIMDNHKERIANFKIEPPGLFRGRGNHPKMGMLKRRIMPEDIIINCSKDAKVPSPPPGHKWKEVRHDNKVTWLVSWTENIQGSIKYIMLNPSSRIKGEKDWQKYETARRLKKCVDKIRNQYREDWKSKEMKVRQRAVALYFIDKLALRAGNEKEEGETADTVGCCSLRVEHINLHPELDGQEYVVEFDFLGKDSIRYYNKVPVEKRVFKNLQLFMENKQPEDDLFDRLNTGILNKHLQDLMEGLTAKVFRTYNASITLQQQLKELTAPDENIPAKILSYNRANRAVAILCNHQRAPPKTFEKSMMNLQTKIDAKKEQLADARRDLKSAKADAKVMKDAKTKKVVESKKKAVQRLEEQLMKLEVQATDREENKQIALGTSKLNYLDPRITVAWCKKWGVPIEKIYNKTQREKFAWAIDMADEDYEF

[3] = system: KB; experiment: Cytotoxicity against human KB cells; type: functional, cell-based
[4] = species on record: Bos taurus; experiment: Inhibition of calf thymus DNA topoisomerase 1 assessed as minimum efficient dose
[5] = system: P388; experiment: Cytotoxicity against mouse P388 cells at 100 ug/mL; type: functional, cell-based
[6] = system: P388; experiment: Cytotoxicity against mouse P388 cells; type: functional, cell-based
[7] = species on record: Bos taurus; experiment: Inhibition of calf thymus tubulin assembly

Sequence of DNA topoisomerase 2-alpha (Homo sapiens) (P11388 whole entry): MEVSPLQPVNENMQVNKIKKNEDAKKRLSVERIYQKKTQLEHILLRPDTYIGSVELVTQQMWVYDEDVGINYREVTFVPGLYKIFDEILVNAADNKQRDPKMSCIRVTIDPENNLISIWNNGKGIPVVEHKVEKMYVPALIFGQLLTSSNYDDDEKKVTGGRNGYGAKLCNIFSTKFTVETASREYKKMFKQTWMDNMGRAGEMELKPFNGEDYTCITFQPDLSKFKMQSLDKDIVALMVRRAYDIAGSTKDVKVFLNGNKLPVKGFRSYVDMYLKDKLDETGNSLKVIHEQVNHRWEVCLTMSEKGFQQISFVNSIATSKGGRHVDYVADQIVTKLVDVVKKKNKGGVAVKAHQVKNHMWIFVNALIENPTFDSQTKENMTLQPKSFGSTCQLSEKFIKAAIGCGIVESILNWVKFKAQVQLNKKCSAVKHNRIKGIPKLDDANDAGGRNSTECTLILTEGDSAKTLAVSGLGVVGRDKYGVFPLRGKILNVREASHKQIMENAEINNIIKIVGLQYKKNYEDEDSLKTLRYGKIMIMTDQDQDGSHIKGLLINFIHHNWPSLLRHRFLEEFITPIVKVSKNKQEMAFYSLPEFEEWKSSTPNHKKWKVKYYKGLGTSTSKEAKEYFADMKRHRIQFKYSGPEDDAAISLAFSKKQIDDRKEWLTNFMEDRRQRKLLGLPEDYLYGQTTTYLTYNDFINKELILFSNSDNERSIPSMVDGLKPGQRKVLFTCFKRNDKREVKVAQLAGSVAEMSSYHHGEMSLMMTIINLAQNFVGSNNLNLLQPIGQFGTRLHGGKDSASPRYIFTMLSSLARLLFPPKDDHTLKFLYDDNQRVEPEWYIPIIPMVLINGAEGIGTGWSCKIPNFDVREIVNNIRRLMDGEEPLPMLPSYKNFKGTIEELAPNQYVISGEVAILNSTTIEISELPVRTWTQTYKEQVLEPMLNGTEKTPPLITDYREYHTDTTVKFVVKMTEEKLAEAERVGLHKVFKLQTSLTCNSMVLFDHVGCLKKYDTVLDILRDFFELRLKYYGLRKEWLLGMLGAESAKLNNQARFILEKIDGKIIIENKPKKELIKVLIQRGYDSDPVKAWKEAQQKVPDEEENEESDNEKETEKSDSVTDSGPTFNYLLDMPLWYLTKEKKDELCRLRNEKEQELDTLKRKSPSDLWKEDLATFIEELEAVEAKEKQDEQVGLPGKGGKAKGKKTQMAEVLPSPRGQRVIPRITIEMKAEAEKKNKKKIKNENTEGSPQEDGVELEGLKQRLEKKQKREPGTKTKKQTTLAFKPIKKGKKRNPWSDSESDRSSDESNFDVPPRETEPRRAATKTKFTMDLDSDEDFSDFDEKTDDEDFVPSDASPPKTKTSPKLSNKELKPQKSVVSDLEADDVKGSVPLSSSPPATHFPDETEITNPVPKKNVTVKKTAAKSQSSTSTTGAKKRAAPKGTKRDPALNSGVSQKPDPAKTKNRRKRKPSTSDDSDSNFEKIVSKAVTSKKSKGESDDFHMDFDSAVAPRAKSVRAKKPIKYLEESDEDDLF

Row | SMILES | IC50 [3] [µg/mL] | MED [4] [µg/mL] | Activity [5] | also measured
1 | O=c1c(O)c(-c2cc(O)c(O)c(O)c2)oc2cc(O)cc(O)c12 |  |  |  | Activity [1]: Active; Activity [2]: Active
2 | CC[C@@]1(O)C(=O)OCc2c1cc1n(c2=O)Cc2cc3ccccc3nc2-1 [CAMPTOTHECIN] | 0.01 (≈ 0.0287 µM) | 0.03 |  | 
3 | COc1cc(O)c2c(=O)cc(-c3cc(OC)c(OC)c(OC)c3)oc2c1 [CORYMBOSIN] | 19.4 (≈ 54.1 µM) |  | inactive | 
4 | COc1cccc2c1C(=O)c1c(O)c3c(c(O)c1C2=O)C[C@@](O)(C(=O)CO)C[C@@H]3O[C@H]1C[C@H](N)[C@H](O)[C@H](C)O1 [DOXORUBICIN] | 1.5 (≈ 2.76 µM) |  |  | IC50 [6]: 0.005 µg/mL (≈ 0.0092 µM)
5 | COc1cc(O)c2c(=O)cc(-c3ccc(OC)c(OC)c3)oc2c1 | 19.4 (≈ 59.1 µM) |  | inactive | 
6 | COc1cc(O)c2c(=O)cc(-c3ccc(O)c(OC)c3)oc2c1 [VELUTIN] |  | 0.1 |  | IC50 [6]: 10 µg/mL (≈ 31.8 µM); Activity [7]: inactive
7 | COc1ccc(-c2oc3cc(O)c(OC)c(O)c3c(=O)c2OC)cc1O [CENTAUREIDIN] | 0.04 (≈ 0.111 µM) |  |  | 
8 | COc1cc(O)c2c(=O)cc(-c3ccc(O)cc3)oc2c1 [GENKWANIN] | 8.7 (≈ 30.6 µM) | > 10 |  | IC50 [6]: 10 µg/mL (≈ 35.2 µM)
9 | COc1cc(O)c2c(=O)cc(-c3cc(O)c(OC)c(OC)c3)oc2c1 [LETHEDOCIN] | 16.4 (≈ 47.6 µM) |  | inactive | 
10 | COc1cc(O)c2c(=O)cc(-c3cc(OC)c(O)c(OC)c3)oc2c1 | 7.7 (≈ 22.4 µM) | 1 | inactive | Activity [7]: inactive
11 | O=c1c(O)c(-c2ccc(O)c(O)c2)oc2cc(O)ccc12 |  |  |  | Activity [1]: Active; Activity [2]: Active
12 | O=c1c(O)c(-c2ccc(O)c(O)c2)oc2cc(O)cc(O)c12 |  |  |  | Activity [1]: Active; Activity [2]: Active
